We go through eight compounds from US8722665B2, “Cinnamido-pyrrolo[2,1-C][1,4]benzodiazepines as potential anticancer agents and process for the preparation thereof” (Council of Scientific & Industrial Research, priority 2008, dated 2014).

The assay relates to duplex-form calf thymus DNA (CT-DNA). Kind of assay: Thermal denaturation studies with calf thymus DNA. Type of assay: binding. Particulars: [PBD]:[DNA] molar ratio 1:5, CT-DNA 100 μM, ligand 20 μM, pH 7.00; for (ΔTm ° C.) after incubation at 37° C. for 0 h: 0 h incubation at 37° C.; for (ΔTm ° C.) after incubation at 37° C. for 18 h: 18 h incubation at 37° C. As to the method:
Compounds have been subjected to thermal denaturation studies with duplex-form calf thymus DNA (CT-DNA) using an modification of a reported procedure (Newman, M. S. Carcinog-compr. Surv. 1976, 1, 203; (b) Hecht, S. S.; Loy, M.; Hoffman, Carcinog-compr. Surv. 1976, 1, 325). Working solutions in aqueous buffer (10 mM NaH2PO4/Na2HPO4, 1 mM Na2EDTA, pH 7.00+0.01) containing CT-DNA (100 μm in phosphate) and the PBD (20 μm) have been prepared by addition of concentrated PBD solutions in DMSO to obtain a fixed [PBD]/[DNA] molar ratio of 1:5. The DNA-PBD solutions have been incubated at 37° C. for 0 and 18 h prior to analysis. Samples have been monitored at 260 nm using a Beckman DU-800 spectrophotometer fitted with high performance temperature controller, and heated at 1° C. min^−1 in the 40-110° C. range. DNA helix→coil transition temperatures (Tm) have been obtained from the maxima in the d(A260)/dT derivative plots. Drug-induced alterations in DNA melting behavior are given by: ΔTm=Tm(DNA+PBD)−Tm(DNA alone), where the Tm value for the PBD-free CT-DNA is 69.1±0.01.
The DNA binding activity for these Cinnamido-pyrrolo[2,1-c][1,4]benzodiazepines have been examined by thermal denaturation studies using calf thymus (CT) DNA. […] The data for the compounds 8b&d, 11b&d, 14b&d and 17b&d is included in Table 1 for comparison.

On to `COc1cc2c(cc1O)N=CC1CCCN1C2=O` (stereo not shown) [DC-81, reference compound], for which the “(ΔTm ° C.) after incubation at 37° C. for 0 h” value was 0.3 °C and the “(ΔTm ° C.) after incubation at 37° C. for 18 h” value worked out at 0.7 °C.

As to `COc1cc(/C=C/C(=O)N2CCOCC2)ccc1OCCCOc1cc2c(cc1OC)C(=O)N1CCC[C@H]1C=N2` [14b, 7-methoxy-8-(3-2-methoxy-4-[(E)-3-morpholino-3-oxo-1-propenylphenoxy]propoxy)-(11aS)-2,3,5,11^a-tetrahydro-5H-pyrrolo[2,1-c][1,4]benzodiazepine-5-one], the “(ΔTm ° C.) after incubation at 37° C. for 0 h” value is 3.0 °C and the “(ΔTm ° C.) after incubation at 37° C. for 18 h” value stood at 4.2 °C.

Regarding `COc1cc(/C=C/C(=O)N2CCN(C(=O)c3cc(OC)c(OC)c(OC)c3)CC2)ccc1OCCCCCOc1cc2c(cc1OC)C(=O)N1CCC[C@H]1C=N2` [8d, 7-methoxy-8-{5-(2-methoxy-4-(E)-3-oxo-3-[4-(3,4,5-trimethoxybenzoyl)piperazino]-1-propenylphenoxy)pentyloxy}-(11aS)-2,3,5,11^a-tetrahydro-5H-pyrrolo[2,1-c][1,4]benzo-diazepine-5-one], the “(ΔTm ° C.) after incubation at 37° C. for 0 h” value came out at 1.5 °C and the “(ΔTm ° C.) after incubation at 37° C. for 18 h” value turned out to be 2.5 °C.

Regarding “1,1′-{[(E-3-bis pentyloxy-3-methoxy phenyl)-1-4-piperzino]-2-propene-1-one]dioxy}bis(11aS)-7-methoxy-1,2,3,11a-tetrahydro-5H-pyrrolo[2,1-c][1,4]benzo diazepine-5-one [17d]”, the “(ΔTm ° C.) after incubation at 37° C. for 0 h” value was found to be 8.1 °C and the “(ΔTm ° C.) after incubation at 37° C. for 18 h” value was determined as 9.2 °C.

Turning to “1,1′-{[(E-3-bis propoxy-3-methoxy phenyl)-1-4-piperzino]-2-propene-1-one}dioxy}bis(11aS)-7-methoxy-1,2,3,11a-tetrahydro-5H-pyrrolo[2,1-c][1,4]benzo diazepine-5-one [17b]”, the “(ΔTm ° C.) after incubation at 37° C. for 0 h” value was 4.0 °C and the “(ΔTm ° C.) after incubation at 37° C. for 18 h” value was found to be 5.1 °C.

Consider `COc1cc(/C=C/C(=O)N2CCN(C)CC2)ccc1OCCCOc1cc2c(cc1OC)C(=O)N1CCC[C@H]1C=N2` [11b, 7-methoxy-8-(3-2-methoxy-4-[(E)-3-(4-methylpiperazino)-3-oxo-1-propenyl-phenoxy]propoxy)-(11aS)-2,3,5,11^a-tetrahydro-5H-pyrrolo[2,1-c][1,4]benzodiazepine-5-one], for which the “(ΔTm ° C.) after incubation at 37° C. for 0 h” value came out at 4.0 °C and the “(ΔTm ° C.) after incubation at 37° C. for 18 h” value came to 5.0 °C.

Turning to `COc1cc(/C=C/C(=O)N2CCOCC2)ccc1OCCCCCOc1cc2c(cc1OC)C(=O)N1CCC[C@H]1C=N2` [14d, 7-methoxy-8-(5-2-methoxy-4-[(E)-3-morpholino-3-oxo-1-propenylphenoxy]pentyloxy)-(11aS)-2,3,5,11^a-tetrahydro-5H-pyrrolo[2,1-c][1,4]benzodiazepine-5-one], the “(ΔTm ° C.) after incubation at 37° C. for 0 h” value was determined as 7.1 °C and the “(ΔTm ° C.) after incubation at 37° C. for 18 h” value turned out to be 8.2 °C.

For the compound `COc1cc(/C=C/C(=O)N2CCN(C)CC2)ccc1OCCCCCOc1cc2c(cc1OC)C(=O)N1CCC[C@H]1C=N2` [11d, 7-methoxy-8-(5-2-methoxy-4-[(E)-3-(4-methylpiperazino)-3-oxo-1-propenyl-phenoxy]pentyloxy)-(11aS)-2,3,5,11^a-tetrahydro-5H-pyrrolo[2,1-c][1,4]benzodiazepine-5-one], the “(ΔTm ° C.) after incubation at 37° C. for 0 h” value came out at 7.9 °C and the “(ΔTm ° C.) after incubation at 37° C. for 18 h” value stood at 8.8 °C.
